PMC7136958, “Targeting the pregnane X receptor using microbial metabolite mimicry” (EMBO Molecular Medicine, 2020)
“And” between values parts separate entries of the source, which are not always exact repeats. Identical values can stand only once.

Key:
JNK1 = JNK1 (Homo sapiens, UniProt P45983); assay: KINOMEscan select kinase screen; type: binding; conditions: two experiments
Procedure: (§1) Kinase Assays. The kinase inhibition assays were conducted by DiscoverX on a platform assay by Ambit BioSciences as described previously 16,17. FKK6 was screened at a single concentration of 10 μM in duplicate. The scanMAXSM assay panel measures 468 kinases
(§2) (https://www.discoverx.com/services/drug-discovery-development-services/kinase-profiling/kinomescan/scanmax). The assays measure a compound’s ability to inhibit binding of a canonical ligand substrate, with 0% activity of control corresponding to full inhibition and 100% activity of control to no inhibition. […]

JNK2 = JNK2 (Homo sapiens, UniProt P45984); assay: KINOMEscan select kinase screen; type: binding; conditions: two experiments
Procedure: as §1, §2

S6K1 = S6K1 (Homo sapiens, UniProt P23443); assay: KINOMEscan select kinase screen; type: binding; conditions: two experiments
Procedure: as §1, §2

NF-κB = assay: TNF-α-induced NF-κB reporter assay in LS174T PXR-KO cells; conditions: for NFkB NanoLuc luminescence, aver / NFkB %max: LS174T PXR-KO, EXP3; for NFkB %max: TNFa 5 ng/ml = 100
Text: In early passage PXR‐KO cells, we used PXR and NF‐κB reporter‐co‐transfected and NF‐κB reporter‐transfected PXR‐KO cell line.
CRISPR/Cas9‐mediated knockout cells were generated by Synthego Corporation (Redwood City, CA, USA). Briefly, cells were first tested negative for mycoplasma. Guide RNA was selected for high activity, specificity, and activity to create premature stop codons through frameshift mutations in the coding region via insertions and/or deletions (Indels) within exon 2 of the gene encoding human PXR (NR1I2 transcript ID ENST00000337940). […] To generate these cells, ribonucleoproteins (RNPs) containing the Cas9 protein and synthetic chemically modified sgRNA (Synthego) were electroporated into the cells using Synthego's optimized protocol. Editing efficiency is assessed upon recovery, 48 h post‐electroporation. Genomic DNA is extracted from a portion of the cells, PCR‐amplified, and sequenced using Sanger sequencing. The resulting chromatograms are processed using Synthego Inference of CRISPR Edits software (ice.synthego.com).

Sequence of JNK2 (P45984 whole entry): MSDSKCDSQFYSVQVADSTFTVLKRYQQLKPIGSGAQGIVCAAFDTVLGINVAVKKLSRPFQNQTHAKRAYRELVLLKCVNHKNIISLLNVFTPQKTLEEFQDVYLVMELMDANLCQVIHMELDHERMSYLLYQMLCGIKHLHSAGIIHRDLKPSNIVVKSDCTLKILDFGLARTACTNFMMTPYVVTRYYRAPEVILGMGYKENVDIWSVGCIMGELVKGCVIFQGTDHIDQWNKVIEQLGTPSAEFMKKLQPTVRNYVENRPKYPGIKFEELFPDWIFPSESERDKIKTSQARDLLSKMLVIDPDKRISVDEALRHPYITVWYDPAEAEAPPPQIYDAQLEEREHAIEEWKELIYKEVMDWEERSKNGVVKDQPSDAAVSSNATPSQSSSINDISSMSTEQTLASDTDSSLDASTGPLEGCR
Sequence of S6K1 (P23443 whole entry): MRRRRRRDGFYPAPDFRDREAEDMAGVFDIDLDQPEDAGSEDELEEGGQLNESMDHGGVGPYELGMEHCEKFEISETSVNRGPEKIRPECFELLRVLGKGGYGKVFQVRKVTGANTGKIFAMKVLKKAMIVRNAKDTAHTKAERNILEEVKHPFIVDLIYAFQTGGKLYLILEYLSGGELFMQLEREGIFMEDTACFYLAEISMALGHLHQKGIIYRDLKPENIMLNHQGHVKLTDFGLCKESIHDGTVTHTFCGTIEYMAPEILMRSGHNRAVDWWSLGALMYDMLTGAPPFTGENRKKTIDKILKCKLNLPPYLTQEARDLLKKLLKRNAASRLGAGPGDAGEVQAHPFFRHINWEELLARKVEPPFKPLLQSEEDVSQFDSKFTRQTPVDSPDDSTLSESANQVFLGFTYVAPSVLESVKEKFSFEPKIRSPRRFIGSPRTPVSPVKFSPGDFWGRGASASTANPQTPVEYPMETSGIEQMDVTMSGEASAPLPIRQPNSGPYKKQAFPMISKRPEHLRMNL
Sequence of JNK1 (P45983 whole entry): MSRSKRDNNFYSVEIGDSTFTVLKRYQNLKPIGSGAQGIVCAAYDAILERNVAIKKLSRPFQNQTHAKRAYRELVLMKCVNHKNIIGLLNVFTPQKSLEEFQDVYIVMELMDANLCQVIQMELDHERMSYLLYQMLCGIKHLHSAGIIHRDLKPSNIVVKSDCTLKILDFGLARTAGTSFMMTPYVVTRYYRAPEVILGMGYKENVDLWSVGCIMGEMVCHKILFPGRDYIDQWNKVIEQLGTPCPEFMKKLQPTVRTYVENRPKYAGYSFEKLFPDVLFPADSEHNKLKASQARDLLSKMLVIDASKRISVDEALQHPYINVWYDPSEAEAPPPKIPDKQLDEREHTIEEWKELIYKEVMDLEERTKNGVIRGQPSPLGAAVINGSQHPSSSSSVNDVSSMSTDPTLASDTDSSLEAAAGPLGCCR

SMILES: O=C(c1ccncc1)c1cc2ccccc2n1S(=O)(=O)c1ccccc1 [FKK5, (1-(phenylsulfonyl)-1H-indol-2-yl)(pyridin-4-yl)methanone]
- %Ctrl (JNK1; 10000 nM, 10 µM): 95 %Ctrl
- remaining binding at 10 µM (JNK1; 10000 nM, read-out: %Ctrl): 91%
- %Ctrl (JNK1; 25000 nM, 25 µM): 85 %Ctrl
- remaining binding at 25 µM (JNK1; 25000 nM, read-out: %Ctrl): 66%
- %Ctrl (JNK2; 10000 nM, 10 µM): 88 %Ctrl
- remaining binding at 10 µM (JNK2; 10000 nM, read-out: %Ctrl): 95%
- %Ctrl (JNK2; 25000 nM, 25 µM): 80 %Ctrl
- remaining binding at 25 µM (JNK2; 25000 nM, read-out: %Ctrl): 74%
- %Ctrl (S6K1; 10000 nM, 10 µM): 79 %Ctrl and 100 %Ctrl
- %Ctrl (S6K1; 25000 nM, 25 µM): 89 %Ctrl
- remaining binding at 25 µM (S6K1; 25000 nM, read-out: %Ctrl): 71%

SMILES: C#CCC(O)(c1ccncc1)c1cc2ccccc2n1S(=O)(=O)c1ccccc1 (stereo not drawn) [FKK6]
- NFkB NanoLuc luminescence, aver (NF-κB; 1 μM + TNFα 5 ng/ml): 70912.7
- NFkB %max (NF-κB; 1 μM + TNFα 5 ng/ml): 128.7% and 128.74%
- NFkB NanoLuc luminescence, aver (NF-κB; 10 μM + TNFα 5 ng/ml): 56963.0
- NFkB %max (NF-κB; 10 μM + TNFα 5 ng/ml): 103.4% and 103.41%
- NFkB NanoLuc luminescence, aver (NF-κB; 25 μM + TNFα 5 ng/ml): 50715.5
- NFkB %max (NF-κB; 25 μM + TNFα 5 ng/ml): 92.1% and 92.07%
- NF-κB reporter activity (NF-κB; TNF-exposed PXR-KO cells): neither rifampicin nor FKK6 repressed
